Results on two molecules are retold here after US11339193B2, “CDP protein secretion inhibitors” (KEZAR LIFE SCIENCES, priority 2018, dated 2022).

Structures are written as SMILES. Where two headings read alike, the source gives them in different places. Peptide text beside a SMILES is read from it.

Format in all cases: cell-based
Experiment [1] concerns BT474 breast tumor cell line. Briefly: BT474 assay (Alamar blue). The following applies: Homo sapiens, BT-474, 72 h. In short, it runs like this:
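For both lines, 5000 cells/well were exposed to compound or a 1% DMSO-medium control for 72 h unless otherwise specified. Signal was normalized to the DMSO control.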

In experiment [2] the test system is NCI-H929 multiple myeloma cell line. Briefly: H929 assay (cell viability, Celltiter-Glo). The conditions noted are these: Homo sapiens, NCI-H929; 48 hours, cell viability; read-out: H929 EC50. In short, it runs like this: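 Cells plated in RPMI 1640 with 10% FBS and 2 mM glutamine, treated with compound dilutions in DMSO/media. Incubation 48 h at 37° C, 5% CO2. Viability from luciferase luminescence signal.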

Experiment [3] has as its system HER3ss-Gluc. Briefly: HER3ss assay. The conditions noted are these: HEK-293T T-rex cells, transient transfection, doxycycline, 24 h; read-out: HER3 ss IC50. In short, it runs like this: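 HEK-293T T-REx cells were transiently transfected with HER3 signal sequence (plus four mature-domain residues) fused upstream of mature Gaussia luciferase. Cells were induced with doxycycline (1 μg/ml) and exposed to increasing compound concentrations for 24 h, then secreted luciferase in the conditioned medium was read by luminescence.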

Experiment [4] relates to VCAMss+10aa/Gaussia Luciferase. Briefly: VCAM-ss-Gluc assay (constitutively active or Dox induced). The conditions noted are these: Flp-In 293 T-REx cells, 24 hours. Put shortly: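 Stable cell lines secreting a VCAM signal sequence+10aa/Gaussia luciferase fusion, expressed either constitutively or under T-REx doxycycline control. Cells plated the day before; compound dilutions in DMSO/media (with doxycycline for the induced line) added and incubated at 37° C, 5% CO2.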

For experiment [5], the system named is Prl-ss+10aa/Gaussia Luciferase. Briefly: Prl-ss-Gluc assay (constitutively active or 24 hr Dox inducible). The conditions noted are these: Flp-In 293 T-REx cells, 24 hours; read-out: Prl IC50. Put shortly: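 Stable Flp-In 293 T-REx lines express Prl signal sequence+10aa fused to Gaussia luciferase, either constitutively (pcDNA5/FRT) or under the T-REx promoter (pcDNA5/FRT/TO). Cells plated the day before; compounds in DMSO/media (with doxycycline for the inducible line, 24 h) incubated at 37 °C, 5% CO2.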

For experiment [6], the system named is IL7Rss-Gluc. Briefly: IL7Rss assay. The procedure: The mature domain of secreted luciferase from Gaussia princeps (GLuc) was cloned into pcDNA5/FRT/TO. The signal sequence plus four amino acids of the mature domain from IL7R ([…]) (SEQ ID NO:6) were cloned upstream of GLuc mature domain and used in transient transfection experiment. HEK-293T T-rex cells were cultured in Dulbecco's modified Eagle's medium with 10% FBS at 5% CO2. Cells were plated 1×10e6 cells per well in a 6-well plate and incubated for 6 h. Cells were transiently transfected with IL7Rss-Gluc using Lipofectamine 2000 (Invitrogen). After overnight incubation, transfected cells were replated in a clear-bottomed, black 96-well plate at a density of 20,000 cells per well. Six hours after plating, the cells were treated with doxycycline (1 μg/ml) and increasing concentrations of the indicated compounds for 24 h. Secreted luciferase in the conditioned media was quantified by luminescence using the BioLux Gaussia Luciferase Assay Kit (New England Biolabs, Ipswich, Mass., USA) and a SpectraMax M5 plate reader (Molecular Devices).

Regarding `C#CC[C@H]1OC(=O)[C@H](C)N(C)C(C)[C@H](C[C@H](C)CCCC)NC(=O)[C@H](Cc2ccccc2)N(C)C(=O)[C@H](CC(C)C)NC(=O)[C@H](CC(C)C)N(C)C(=O)[C@H](C[C@H](C)CCCC)NC1=O` (stereo partly drawn) [C-01], the EC50 in experiment [1] turned out to be 730 nM; in experiment [2] it was 454 nM. Further, the IC50 in experiment [3] stood at 40 nM; in experiment [4], 15 nM; in experiment [5], 11600 nM; in experiment [6] (read-out: IL7Rss IC50; HEK-293T T-rex cells, transient transfection, doxycycline, 24 h), 23 nM.

In the case of `CC(C)C[C@@H]1NC(=O)[C@H](Cc2cn(Cc3ccccc3)c3ccccc23)N(C)C(=O)[C@H](CC(C)C)NC(=O)[C@H](CC(C)C)N(C)C(=O)[C@H](CC(C)C)NC(=O)[C@@H](CCC#N)OC(=O)[C@H](C)N(C)C1=O` [C-16] (HELM PEPTIDE1{L.[meA].[N#CCC[C@@H](O[*:1])C(=O)[*:2]].L.[meL].L.[CN([C@@H](Cc1cn(Cc2ccccc2)c2ccccc12)C(=O)[*:2])[*:1]]}$PEPTIDE1,PEPTIDE1,1:R1-7:R2$$$V2.0), the EC50 is 745 nM in experiment [1] and 941 nM in experiment [2]. In addition, the IC50 in experiment [3] worked out at 38 nM; in experiment [4] it was 82 nM; in experiment [5] it was 1820 nM; in experiment [6] (HEK-293T T-rex cells, transient transfection, doxycycline, 24 h; read-out: IL7Rss IC50), 10 nM.
